This assay addresses T1, ALDH1a3 (Homo sapiens, UniProt P47895).
T1 construct: lentiviral vectors containing either the vector backbone or full-length human Aldh1a3; expressed in transfected cells; host or cells: SUM159-M1a (A1) and SUM159 (A7) breast cancer cells, lentiviral pLex vector, puromycin selection
T1 sequence (P47895 1-512): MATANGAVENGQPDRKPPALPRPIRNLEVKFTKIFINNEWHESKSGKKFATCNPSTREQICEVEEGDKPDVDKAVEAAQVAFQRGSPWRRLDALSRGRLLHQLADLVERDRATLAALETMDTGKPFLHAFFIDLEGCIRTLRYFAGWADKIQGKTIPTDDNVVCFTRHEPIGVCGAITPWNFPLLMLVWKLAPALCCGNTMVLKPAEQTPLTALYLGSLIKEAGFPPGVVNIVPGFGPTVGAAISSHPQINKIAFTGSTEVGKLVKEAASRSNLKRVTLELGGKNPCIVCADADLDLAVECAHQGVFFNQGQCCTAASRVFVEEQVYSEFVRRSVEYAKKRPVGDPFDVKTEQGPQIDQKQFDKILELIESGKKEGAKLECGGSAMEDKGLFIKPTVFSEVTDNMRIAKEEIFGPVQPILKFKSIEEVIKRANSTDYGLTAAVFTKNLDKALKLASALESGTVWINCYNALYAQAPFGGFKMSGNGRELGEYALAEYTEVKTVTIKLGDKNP
Put plainly: ALDEFLUOR assay in SUM159-M1a-Aldh1a3 cells (flow cytometry). The note with it: for inhibition at 0.1 µM / Percent of Cells Positive for ALDEFLUOR at 100 nM: SUM159-M1a-Aldh1a3 cells, compound at 100 nM; for inhibition at 0.1 µM: read-out: Inhibitory Activity at 100 nM (%). It is filed as cell-based. The procedure:
Cells were counted, centrifuged and resuspended at 1,000,000 cells/mL in ALDEFLUOR™ buffer (Stemcell Technologies). ALDEFLUOR™ substrate (Stemcell Technologies, 1:200) and test compound or 1 mM DEAB were added to cell suspension and incubated at 37° C. for 45 minutes with vortexing every 15 minutes. Cells were centrifuged and resuspended in ALDEFLUOR™ buffer with DAPI at 5 μg/mL. Samples were analyzed with the BD LSR2 flow cytometry platform. Gating was performed using DEAB as a negative control.
Gating for background fluorescence was performed using 1 millimolar DEAB as a negative control.
The [inh-min] threshold was set at the lower bound of two standard deviations of control samples, while the IC50 threshold was set at 50% of the average of control samples.
High activity was gated at the 99th percentile of cells at a MBE1.5 concentration of 10 nanomolar. The [inh-min] threshold was set at the lower bound of two standard deviations of control samples.
An ALDEFLUOR™ assay was also used to assess the relative activity of several compounds described herein against SUM159-M1a-Aldh1a3 cells. The activity of several compounds in the assay at a concentration of 100 nM is reported in Table 1, along with the chemical structure and compound name associated with each compound.
Background: A flow cytometer gives signals particle by particle.

For `O=C1CCc2cc(NC(=O)c3ccncc3)c(F)cc2N1` [MBE1.2, N-(7-fluoro-2-oxo-1,2,3,4-tetrahydroquinolin-6-yl)isonicotinamide], the inhibition at 0.1 µM came to 8%. For `CC(C)Cc1ccccc1C(=O)Nc1cc2c(cc1F)NC(=O)CC2` [MBE1.5C, N-(7-fluoro-2-oxo-1,2,3,4-tetrahydroquinolin-6-yl)-2-isobutylbenzamide], the “relative potency, ALDEFLUOR activity (FIG. 12)” value (concentration of 10 nM, compared to DMSO or DEAB-treated cells) is recorded as “nearly twice as potent as MBE 1.5, MBE 1.5A or MBE 1.5D”. Turning to `CCc1cnccc1C(=O)Nc1ccc2c(c1)CCC(=O)N2` [MBE1.6, 3-ethyl-N-(2-oxo-1,2,3,4-tetrahydroquinolin-6-yl)isonicotinamide], the “Percent of Cells Positive for ALDEFLUOR at 100 nM” value is recorded as 13% and the inhibition at 0.1 µM came to 83%. In addition, the “inhibition of ALDH1a3 activity (FIG. 1A)” value (compounds at 100 nM) is on record as “high-affinity compounds for the inhibition of ALDH1a3 activity”. As to `Cc1ccc(C)c(CNc2ccc3c(c2)CCC(=O)N3)c1` [MBE2, 6-((2,5-dimethylbenzyl)amino)-3,4-dihydroquinolin-2(1H)-one], the inhibition at 0.1 µM worked out at 45%.

In the case of `Cc1ccc(C(=O)Nc2ccc3c(c2)CCC(=O)N3)cc1C` [MBE3.1, 3,4-dimethyl-N-(2-oxo-1,2,3,4-tetrahydroquinolin-6-yl)benzamide], the inhibition at 0.1 µM was 0.6%. Turning to `Cc1ccc(C(=O)Nc2ccc3c(c2)CCC(=O)N3)c(C)c1` [MBE3.2, 2,4-dimethyl-N-(2-oxo-1,2,3,4-tetrahydroquinolin-6-yl)benzamide], the inhibition at 0.1 µM was found to be 3.3%. The same measure, in the same setting: the same measure for `Cc1ccccc1C(=O)Nc1ccc2c(c1)CCC(=O)N2` [MBE3.3, 2-methyl-N-(2-oxo-1,2,3,4-tetrahydroquinolin-6-yl)benzamide]: 42%; for `O=C1CCc2cc(NCc3ccccc3)ccc2N1` [MBE3.4, 6-(benzylamino)-3,4-dihydroquinolin-2(1H)-one]: 11%. For `O=C1CCc2cc(NC(=O)c3ccncc3F)c(F)cc2N1` [MBE3.5, 3-fluoro-N-(7-fluoro-2-oxo-1,2,3,4-tetrahydroquinolin-6-yl)isonicotinamide], the “Percent of Cells Positive for ALDEFLUOR at 100 nM” value is 63% and the inhibition at 0.1 µM worked out at 18%. Taken in the same sequence, the figures for `Cc1cncc(C(=O)Nc2cc3c(cc2F)NC(=O)CC3)c1` [MBE3.6, N-(7-fluoro-2-oxo-1,2,3,4-tetrahydroquinolin-6-yl)-5-methylnicotinamide] were 55% and 29%. For `O=C1CCc2cc(NCc3ccc[nH]3)c(F)cc2N1` [MBE3.8, 6-(((1H-pyrrol-2-yl)methyl)amino)-7-fluoro-3,4-dihydroquinolin-2(1H)-one], in that order: 75% and 2%.

Source of the values: patent US12162855B2, “Tetrahydroquinolino derivatives for the treatment of metastatic and chemoresistant cancers” (THE TRUSTEES OF PRINCETON UNIVERSITY, priority 2018, dated 2024).
